Results reported in ChEMBL document CHEMBL1147776, “1-[4-(1H-Benzoimidazol-2-yl)-phenyl]-3-[4-(1H-benzoimidazol-2-yl)-phenyl]-urea derivatives as small molecule heparanase inhibitors” (Bioorg Med Chem Lett, 2006).

Key:
[1] = Plasma concentration in mice after 1 hour of ip administration; type: ADME, organism-based; conditions: mouse
[2] = system: B16; assay: Inhibition of proliferation on B16-BL6 melanoma cells at 100 uM; type: functional; conditions: Mus musculus
[3] = Plasma concentration in mice after 4 hours of ip administration; type: ADME, organism-based; conditions: mouse
[4] = system: Mus musculus; assay: Inhibition of lung metastasis in C57 mice injected with B16-BL6 melanoma cells at 30 mg/kg, ip; type: functional; conditions: route intraperitoneal

concentration at 1 h [1]: 31 µM
concentration at 4 h [3]: 23 µM
Compound: O=C(Nc1ccc(-c2nc3ccccc3[nH]2)cc1)Nc1ccc(-c2nc3ccccc3[nH]2)cc1
inhibition at 100 µM [2]: < 50%
inhibition in vivo at 30 mg/kg [4]: 50%
